{"source": "patent US20070110714A1", "about": "(priority 2003, published 2007)", "molecules": {"B1": {"name": "IL-4: recombinant human IL-4 (PeproTech) (protein, UniProt P05112 25-153, looked up)", "Interleukin-4": "HKCDITLQEIIKTLNSLTEQKTLCTELTVTDIFAASKNTTEKETFCRAATVLRQFYSHHEKDTRCLGATAQQFHRHKQLIRFLKRLDRNLWGLAGLNSCPVKEANQSTLENFLERLKTIMREKYSKCSS"}}, "key": {"pseudo type VSV-E1E2 [1]": {"tested_on": "pseudo type VSV-E1E2", "type": "cell-based"}, "MDC": {"tested_on": "MDC", "type": "cell-based, human"}, "VSV? G-G": {"tested_on": "VSV? G-G", "type": "cell-based"}, "[2]": {"tested_on": "Monocyte-derived DCs from healthy donors (N-DC)", "experiment": "MICA/B expression in stimulated DC by flow cytometry (N-DC)", "type": "cell-based, human", "conditions": "N-DC stimulated 24 hours with cytokine at day 6"}, "[3]": {"tested_on": "Monocyte-derived DCs from HCV-infected patients (HCV-DC)", "experiment": "MICA/B expression in stimulated DC by flow cytometry (HCV-DC)", "type": "cell-based, human", "conditions": "HCV-DC stimulated 24 hours with cytokine at day 6"}, "NK cells [4]": {"tested_on": "NK cells", "experiment": "NK cell activation by co-culture with stimulated HCV-DC", "type": "cell-based, human", "conditions": "NK cells co-cultured with cytokine-stimulated HCV-DC", "method": "(§1) NK cells were isolated from PBM of a healthy donor, and labeled with a concentrated antibody cocktail for NK cell, then, labeled with magnetic colloid (StemCell Technologies (Vancouver, BC, Canada)). 90% or more of the cells were CD56+CD3-lymphocytes. The concentrated NK cells were cultured with RPMI 1640 medium supplemented with 10% FCS and 10 U/mL penicillin/streptomycin, in a 24-well culture dish (5.0×10^5/well). DCs from a healthy individual (N-DC) or a HCV-infected individual (HCV-DC) were stimulated with IFNa (1000 U/mL) or IL-15 (50 ng/mL) for 24 hours, added to a well at a concentration of 1.0×10^5/mL, and co-cultured together with NK cells for 24 hours.\nThe cytolysis assay was carried out as described below. Target cells (K562) labeled with ^51Cr were incubated for 4 hours at various effecter/target ratios, in NK/DC co-culturing (with or without trans well system) or NK cell single culturing. After incubation, the supernatant was recovered, and ? counting was conducted. […] The cytolysis activity was calculated according to the following formula: Lysis %=(experimental value of release−natural release)×100/(maximum release−natural release)\nIntracellular IFN? expression of an NK cell was assayed as described below. […] The stained cells were analyzed by flow cytometry. […]"}, "N-DC": {"tested_on": "N-DC", "experiment": "Cytokine production of stimulated N-DC, ELISA of culture supernatant", "type": "cell-based, human", "conditions": "N-DC cultured 24 hours with 50 ng/ml IL-15", "method": "(§2) N-DC and HCV-DC were stimulated with IFNa (1000 U/mL) for 24 hours(n=5 for each group). IL-15, IL-12p70, TNFa and IL-1β in each culture supernatant were measured by solid phase sandwich ELISA using a couple of specific monoclonal antibodies and a recombinant cytokine standard substance (IFNa/β, IL-12p70, TNFa and IL-1β, Endogen, Wobum, Mass.; IL-15, BD-Pharmingen). The limit thresholds of detection of these ELISA systems are as described below: IL-15, 3.7 pg/mL; IFNa/β, 17.5 pg/mL; IL-12p70, TNFa and IL-1β, 8.8 pg/mL.\n(§3) N-DC and HCV-DC were cultured for 24 hours together with 50 ng/ml IL-15 in the presence or absence of an anti-IFNa/βR neutralization antibody (30 μg/mL)(n=5 for each group). IFNa and IFNβ in each culture supernatant were measured by ELISA."}, "NK cells [5]": {"tested_on": "NK cells", "experiment": "NK cell activation by co-culture with stimulated N-DC (K562 cytolytic assay, intracellular IFN? expression)", "type": "cell-based, human", "method": "as §1\n(§4) The cytolysis assay was carried out as described below. Target cells (K562) labeled with ^51Cr were incubated for 4 hours at various effecter/target ratios, in NK/DC co-culturing (with or without trans well system) or NK cell single culturing. After incubation, the supernatant was recovered, and ? counting was conducted. Maximum release or natural release was defined as counting from a sample incubated with 5% Triton-X or a sample incubated with only the medium, respectively. The cytolysis activity was calculated according to the following formula: Lysis %=(experimental value of release−natural release)×100/(maximum release−natural release)\n(§5) Intracellular IFN? expression of an NK cell was assayed as described below. NK cells cultured for 24 hours together with DC as described above were incubated together with 10 ng/ml PMA and 1 μmol/L ionomycin (Sigma Aldrich). Next, after incubation at 37° C. for 4 hours in the presence of 1 μl/mL GolgiPlug (registered trademark)(BD-Phanmngen), NK cells were stained at 4° C. for 30 minutes with a PE-labeled CD56 monoclonal antibody. The cells were treated with Cytofix/Cytoperm (registered trademark) buffering solution (BD-Pharmingen) at room temperature for 15 minutes, then, stained with a FITC-labeled-anti-IFN? monoclonal antibody (mouse IgG1). The stained cells were analyzed by flow cytometry. […]"}, "NK cells [6]": {"tested_on": "NK cells", "experiment": "NK cells cultured with IL-15 alone (K562 cytolytic activity and IFN? production)", "type": "cell-based, human", "conditions": "newly isolated NK cells cultured 24 hours with 50 ng/mL IL-15, no DC", "method": "as §4, §5"}, "HCV-DC": {"tested_on": "HCV-DC", "experiment": "Cytokine production of stimulated HCV-DC, ELISA of culture supernatant", "type": "cell-based, human", "conditions": "HCV-DC cultured 24 hours with 50 ng/ml IL-15", "method": "as §2, §3"}, "HCV": {"tested_on": "HCV", "type": "cell-based"}, "pseudo type VSV-E1E2 [7]": {"tested_on": "pseudo type VSV-E1E2", "type": "cell-based", "remark": "listed apart in the source"}, "[8]": {"conditions": "NK cells co-cultured 24 hours with cytokine-stimulated N-DC"}}}
{"molecule": "O=C(O)CN(CCN(CC(=O)O)CC(=O)O)CC(=O)O", "note": "[EDTA]", "values": [{"measurement": "percentage of GFP+ cell having VSV-E1E2", "setting": "pseudo type VSV-E1E2 [1]", "result": "did not decrease"}]}
{"molecule": "O=C[C@H](O)[C@@H](O)[C@@H](O)[C@H](O)CO", "note": "[galactose]", "values": [{"measurement": "percentage of GFP+ cell having VSV-E1E2", "setting": "pseudo type VSV-E1E2 [1]", "result": "did not exert an influence"}]}
{"molecule": "CpG ODN 2006", "values": [{"measurement": "expression of CD83 and CD86", "setting": "MDC", "result": "up-regulated"}, {"measurement": "percentage of VSV-E1E2-containing GFP+ cells", "setting": "pseudo type VSV-E1E2 [1]", "result": "decreases significantly"}, {"measurement": "sensitivity against VSV? G-G (percentage of GFP+ cells)", "setting": "VSV? G-G", "result": "not influenced"}]}
{"molecule": "GM-CSF: recombinant human GM-CSF (PeproTech)", "values": [{"measurement": "proportion of GFP+ cells (median)", "setting": "pseudo type VSV-E1E2 [1]", "result": 1.5, "unit": "%"}]}
{"molecule": "IL-12: cytokine (R&D Systems)", "values": [{"measurement": "MICA/B expression", "setting": "[2]", "result": "did not induce MICA/B expression"}, {"measurement": "MICA/B expression", "setting": "[3]", "result": "did not induce MICA/B expression"}]}
{"molecule": "IL-15: cytokine (R&D Systems); claimed active ingredient, T cell growth factor stimulating dendritic cells", "values": [{"measurement": "activation of NK cells", "setting": "NK cells [4]", "result": "activated NK cells"}, {"measurement": "MICA/B expression", "setting": "[2]", "result": "could apparently induce MICA/B"}, {"measurement": "MICA/B expression", "setting": "[3]", "result": "could apparently induce MICA/B"}, {"measurement": "production of IFNa and IFNβ", "setting": "N-DC", "result": "produced"}, {"measurement": "IFN? production of NK cells", "setting": "NK cells [5]; [8]", "result": "increase"}, {"measurement": "cytolytic activity for K562 cells", "setting": "NK cells [5]; [8]", "result": "increase"}, {"measurement": "K562 cytolytic activity", "setting": "NK cells [5]; trans well: NK cells and IL-15 (50 ng/mL)-stimulated N-DC separated by 0.4 μm membrane, 24 hours", "result": "did not show increase in cylolytic ability"}, {"measurement": "activation of NK cells (K562 cytolytic activity and IFN? production)", "setting": "NK cells [6]", "result": "could not activate NK cells"}, {"measurement": "production of IFNa and IFNβ", "setting": "HCV-DC", "result": "produced"}]}
{"molecule": "IL-18: cytokine (R&D Systems)", "values": [{"measurement": "MICA/B expression", "setting": "[2]", "result": "did not induce MICA/B expression"}, {"measurement": "MICA/B expression", "setting": "[3]", "result": "did not induce MICA/B expression"}]}
{"molecule": "TNFa", "values": [{"measurement": "MICA/B expression", "setting": "[2]", "result": "did not induce MICA/B expression"}, {"measurement": "MICA/B expression", "setting": "[3]", "result": "did not induce MICA/B expression"}, {"measurement": "percentage of VSV-E1E2-containing GFP+ cells", "setting": "pseudo type VSV-E1E2 [1]", "result": "decreased"}, {"measurement": "sensitivity against VSV? G-G (percentage of GFP+ cells)", "setting": "VSV? G-G", "result": "decreased"}]}
{"molecule": "mannan", "values": [{"measurement": "percentage of GFP+ cell having VSV-E1E2", "setting": "pseudo type VSV-E1E2 [1]", "result": "decreased in dose-dependent manner"}, {"measurement": "disturbing effect on infection of MDC with true HCV", "setting": "HCV", "result": "confirmed"}, {"measurement": "infection of VSV-E1E2 in HepG2 cells", "setting": "pseudo type VSV-E1E2 [7]", "result": "did not inhibit"}]}
{"molecule": "polyI:C", "values": [{"measurement": "percentage of VSV-E1E2-containing GFP+ cells", "setting": "pseudo type VSV-E1E2 [1]", "result": "decreased"}, {"measurement": "sensitivity against VSV? G-G (percentage of GFP+ cells)", "setting": "VSV? G-G", "result": "decreased"}]}
{"molecule": "B1", "values": [{"measurement": "percentage of VSV-E1E2-containing GFP+ cells", "setting": "pseudo type VSV-E1E2 [1]", "result": "decreases significantly"}, {"measurement": "sensitivity against VSV? G-G (percentage of GFP+ cells)", "setting": "VSV? G-G", "result": "not influenced"}]}
